Test results published in patent US20150133373A1, “TRANSMUCOSAL DELIVERY OF ENGINEERED POLYPEPTIDES” (priority 2012, published 2015).

Key:
[1] = Stability in human plasma; assay type: in vitro ADME; conditions: 10 μg/ml in human plasma, 37 degrees C, 5 hours; normalized to a standard (100%)
[2] = tested on: diabetic ob/ob mice; test: Chronic (28 days) treatment of diabetic ob/ob mice: glucose, HbA1c, body weight; assay type: in vivo, mouse
Protocol: The time course of the effect of the test compound on body weight, glucose lowering and HbA1c lowering in ob/ob mice was investigated post dose, with values at 4 weeks presented in FIGS. 11A, 11B, 11C and 11D. […] Points represent mean±s.d. (standard deviation). Each test compound was injected IP on day=0 immediately following baseline sample collection in non-fasted male ob/ob mice. […] Unless indicated otherwise, blood glucose measures described herein employed a OneTouch® Ultra® device (LifeScan, Inc. Miliptas, Calif.).

[3] = tested on: ob/ob mice; test: Body weight, glucose and HbA1c in ob/ob mice after a single sc dose; assay type: in vivo, mouse; conditions: single sc injection, non-fasted male ob/ob mice; Cmpd 15 at 250 nmol/kg
Excerpt: Changes in glucose (% pre-treatment) and in HbA1c (% pre-treatment) are depicted in FIGS. 5B-5C. Points represent mean±s.d. (standard deviation). […] Unless indicated otherwise, blood glucose measures described herein employed a OneTouch® Ultra® device (LifeScan, Inc. Miliptas, Calif.).

[4] = PK profile, food intake and body weight after a single subcutaneous dose in normal HSD rats; assay type: in vivo, rat; conditions: 25 nmol/kg subcutaneous
Protocol: Blood was collected via tail bleed at t=1 hour, 3 hours, 6 hours, 24 hours, 48 hours, 72 hours, 96 hours and 168 hours from fed HSD male rats. Food and body weights were measured daily. […] Points represent mean±sd.
Pharmacokinetic profile and biological activity of an exemplary engineered polypeptide subcutaneously dosed in normal Harlan Sprague-Dawley (HSD) rats is presented. […] Blood was collected via tail bleed at t=1 hour, 3 hours, 6 hours, 24 hours, 48 hours, 72 hours, 96 hours and 168 hours from fed HSD male rats. Food and body weights were measured daily. […] Points represent mean±sd. In the figures, vehicle is solid square, Cmpd 2-11 is open inverted triangle and Cmpd 2-9 is closed triangle. The plasma maximal concentration in FIG. 18C is equivalent to about 25,000 picomolar.

[5] = tested on: C57BL6 female mice; test: Kidney vacuolization (cytoplasmic vacuolation of renal cortical tubular epithelial cells); assay type: in vivo, mouse; conditions: Example 14; sc injection on days 0-6, kidneys on day 7
Protocol: (§1) With some drugs, such as some pegylated proteins, undesirable vacuoles can form in cytoplasm of epithelial cells lining the proximal convoluted tubules, which is an undesirable toxicity measure. […] C57BL6 female mice (n=2 cages, 3 mice/cage) were weighed daily 3 hours prior to lights out Immediately after weighing, on days 0-6 mice were injected subcutaneously with test compound. Mice were sacrificed on day 7 and kidneys submitted for histopathology. […] A positive control compound known to cause vacuole formation was scored as 3. The ABD polypeptide itself scored 0.
as §1, with “3.” for “3. The ABD polypeptide itself scored 0.”

[6] = tested on: db/db mice; test: Oral (gavage) delivery, blood glucose lowering in diabetic db/db mice; assay type: in vivo, mouse; conditions: 240 nmol/kg peroral by gavage in PBS/propylene glycol (50:50); 2-hour fasted db/db mice; to 120 minutes
[7] = tested on: Sprague Dawley rats; test: IVGTT DOA in HSD fed anesthetized rats 5 days post dose; assay type: in vivo, rat; conditions: 240 nmol/kg
Protocol: In vivo assays for activity and duration of action and pharmacokinetics can be done using known methods. For example, duration can be performed using an oral glucose tolerance test (OGTT) in which the drug is administered to the subject at a desired time point before the glucose is administered orally (to measure drug duration of action; OGTT DOA) and glucose blood levels are measured (e.g. readily done in mice). Activity and duration can also be measured using an intravenous glucose tolerance test (IVGTT) in which the drug is administered to the subject at a desired time point before the glucose is administered IV (IVGTT DOA) and blood glucose levels are measured (e.g. can readily be done in rats). Preferred engineered compounds have a desired effect on blood glucose of at least 24 hours duration after a single dose of drug, preferably at least 3 days, at least 4 days, at least 5 days, at least 6 days, and at least 1 week after the single dose of drug is given.
The time course of plasma glucose after IVGTT is depicted in FIG. 4A. Integrated (AUC0-60) glucose levels are depicted in the histogram of FIG. 4B. The time course of the change in insulin levels in the test subjects was depicted in FIG. 4C. The integrated insulin levels (AUC0-30) are depicted in FIG. 4D. The time course of body weight change (% change from baseline) is depicted for the test subjects in FIG. 4E. […]

[8] = tested on: NIH/Swiss mice; test: OGTT DOA (oral glucose tolerance test for duration of action) in NIH/Swiss mice; assay type: in vivo, mouse; conditions: Table 6; 25 nmol/kg IP at t=−1 day; blood glucose at 30 min after glucose gavage ([…]); 4 hr fasted NIH/Swiss female mice
[9] = 25 and 250 nmol/kg IP twice each week for 28 days

## HGEGTFTSDLSKQLEEEAVRLFIEWLKQGGPSKEIISTGGGGSASLAEAKVLANRELDKYGVSDFYKRLINKAKTVEGVEALKLHILAALP [Cmpd 15]
[1]
  Percent Stable in Human Plasma: 96.0%
[2]; 25 nmol/kg biw IP vs exendin-4 ~[…] CSI, 28 days
  glycemic and body weight loss effects compared to the maximally efficacious dose of exendin-4 (in words): exceeded
[2]; 250 nmol/kg biw IP, 28 days
  effect compared to the maximally efficacious dose of exendin-4 (in words): significantly greater than the maximally efficacious dose of exendin-4
[2]; [9]
  HbA1c lowering (in words): significant HbA1c lowering
  body weight loss (in words): significant body weight loss
[2]; equimolar dosing to liraglutide, data not shown
  HbA1c lowering and body weight loss compared to liraglutide (in words): more effective than liraglutide
[2]; equimolar dosing, twice weekly (BIW), ob/ob mice
  glucose lowering upon chronic exposure compared to liraglutide (in words): superior to liraglutide
[3]
  body weight in ob/ob mice (in words): significant body weight loss
[4]
  apparent half-life: 54 h
[5]
  Severity score for cytoplasmic vacuolation of renal cortical tubular epithelial cells: 0
[6]
  activity after oral dosing (blood glucose, in words): active when dosed orally
[7]
  time after administration at which drug activity is present (IVGTT DOA): at least 5 days
[8]
  % Glucose Lowering Compared to Vehicle: −21%
